# Test results from patent US10722442B2, “Skin brightening composition comprising novel ginsenoside” (AMOREPACIFIC CORPORATION, priority 2018, dated 2020).
# Columns and labels:
# [1] = target: Mushroom-derived tyrosinase; assay: Inhibitory effect of tyrosinase activity; type: biochemical; settings: L-tyrosine substrate, 20 minutes at 37° C., absorbance at 490 nm
# Procedure: In order to compare the skin brightening effects of ginsenosides isolated from the ginseng seed extract, the inhibitory effect of the tyrosinase activity was evaluated as follows. Mushroom-derived tyrosinase and tyrosine were obtained from Sigma Chemical. […] Tyrosinase activity was assessed by measuring the absorbance at 490 nm using a microplate reader (Bio-Rad 3550, Richmond, Calif., U.S.A.) after an enzyme reaction for 20 minutes at 37° C.
# healthy adult subjects = assay: Human repeated insult patch tests (HRIPT), skin accumulated irritation; type: in vivo; parameters: key to reactivity (skin response, ICDRG criteria): −: Negative (no response); ±: Suspicious or slight erythema, or the like; +: Weak reactions (without vesicles), erythema, papules; ++: Severe reactions (with vesicles), erythema, papules, vesicles; +++: Strong reaction, bulla reaction; settings: for Average reactivity: safe when less than 3
# Procedure: Human repeated insult patch tests (HRIPT) were performed to confirm whether the novel ginsenoside GS #10, which is an example of the present disclosure, has a skin accumulated irritation and to calculate a concentration range that can be used on the skin.
# Specifically, 15 healthy adult subjects were randomly selected, and the test composition containing 0.5 wt %, 1 wt %, and 3 wt % of the compound (the skin composition comprising an emulsifier, a stabilizer, purified water, etc. in addition to the compound) was added dropwise by 20 μl per chamber (IQ chamber, Epitest Ltd, Finland). After 24 hours from patching the upper right part of the back of a subject, it was replaced with the new patch. In this way, the skin reactions were examined before and after each patch while performing nine patches three times a week for a total of three weeks. The skin reactions were confirmed up to 48 hours after removing the final patch, and the average reactivity was obtained.
# The skin response was determined according to the criteria of the International Contact Dermatitis Research Group (ICDRG). […] This means that the novel ginsenoside GS #10, which is an example of the present disclosure, has no skin accumulated irritation and can be used safely on the skin.
# Mel-Ab cell line = assay: Melanin production inhibition (Dooley's method); type: cell-based, C57BL/6; settings: Mel-Ab cells, after 5 days, absorbance at 400 nm
# SH-SY5Y cells = assay: Cytotoxicity, Cell Counting Kit (CCK)-8; type: cell-based; settings: SH-SY5Y cells, 0.1, 1, 5, 10, 20, and 50 μM; up to 50 μM
# Procedure: The cell growth in the presence of novel ginsenoside GS #10, which is an example of the present disclosure, was evaluated using Cell Counting Kit (CCK)-8, in order to exclude the possibility that ginsenosides may affect skin brightening efficacy through cytotoxic activity.
# Specifically, the viability of SH-SY5Y cells was assessed using CCK-8 assay according to manufacturer's instructions (Dojindo, Md., USA). CCK-8, a cell viability detection reagent, was added to the cultured SH-SY5Y cells and incubated for 2 hours in a wet atmosphere. Then, absorbance was measured at 450 nm, and the cell viability was marked as a percentage (%) of the absolute optical density of each sample relative to the untreated sample. At this time, the concentration of the novel ginsenoside GS #10, which is an example of the present disclosure, contained in the medium in which the cells were cultured was 0.1, 1, 5, 10, 20, and 50 μM, respectively.
smiles,measurement,setting,value
"CC1(C)C(=O)CC[C@@]2(C)C1[C@@H](O[C@H]1OC(CO)[C@H](O)C(O)C1O[C@H]1OC(CO)[C@H](O)C(O)C1O)C[C@]1(C)C2C[C@@H](O)C2C([C@]3(C)CC[C@H](C(C)(C)O)O3)CC[C@]21C (stereo partly drawn) [GS#10, (20S,24R)-6-O-β-D-glucopyranosyl(1→2)-β-D-glucopyranoside-dammar-3-one-20,24-epoxy-6a,12b,25-triol]","IC50 (ppm), inhibitory effect of tyrosinase activity",[1],15 ppm
same,"Number of subjects with ±, +, or ++ reactivity","healthy adult subjects; 0.5 wt %, Eight times, 1st line (±)",0 person
same,"Number of subjects with ±, +, or ++ reactivity","healthy adult subjects; 0.5 wt %, Eight times, 2nd line (+)",0 person
same,"Number of subjects with ±, +, or ++ reactivity","healthy adult subjects; 0.5 wt %, Eight times, 3rd line (++)",0 person
same,"Number of subjects with ±, +, or ++ reactivity","healthy adult subjects; 0.5 wt %, Five times, 1st line (±)",0 person
same,"Number of subjects with ±, +, or ++ reactivity","healthy adult subjects; 0.5 wt %, Five times, 2nd line (+)",0 person
same,"Number of subjects with ±, +, or ++ reactivity","healthy adult subjects; 0.5 wt %, Five times, 3rd line (++)",0 person
same,"Number of subjects with ±, +, or ++ reactivity","healthy adult subjects; 0.5 wt %, Four times, 1st line (±)",0 person
same,"Number of subjects with ±, +, or ++ reactivity","healthy adult subjects; 0.5 wt %, Four times, 2nd line (+)",0 person
same,"Number of subjects with ±, +, or ++ reactivity","healthy adult subjects; 0.5 wt %, Four times, 3rd line (++)",0 person
same,"Number of subjects with ±, +, or ++ reactivity","healthy adult subjects; 0.5 wt %, Nine times, 1st line (±)",0 person
same,"Number of subjects with ±, +, or ++ reactivity","healthy adult subjects; 0.5 wt %, Nine times, 2nd line (+)",0 person
same,"Number of subjects with ±, +, or ++ reactivity","healthy adult subjects; 0.5 wt %, Nine times, 3rd line (++)",0 person
same,"Number of subjects with ±, +, or ++ reactivity","healthy adult subjects; 0.5 wt %, Once, 1st line (±)",0 person
same,"Number of subjects with ±, +, or ++ reactivity","healthy adult subjects; 0.5 wt %, Once, 2nd line (+)",0 person
same,"Number of subjects with ±, +, or ++ reactivity","healthy adult subjects; 0.5 wt %, Once, 3rd line (++)",0 person
same,"Number of subjects with ±, +, or ++ reactivity","healthy adult subjects; 0.5 wt %, Seven times, 1st line (±)",0 person
same,"Number of subjects with ±, +, or ++ reactivity","healthy adult subjects; 0.5 wt %, Seven times, 2nd line (+)",0 person
same,"Number of subjects with ±, +, or ++ reactivity","healthy adult subjects; 0.5 wt %, Seven times, 3rd line (++)",0 person
same,"Number of subjects with ±, +, or ++ reactivity","healthy adult subjects; 0.5 wt %, Six times, 1st line (±)",0 person
same,"Number of subjects with ±, +, or ++ reactivity","healthy adult subjects; 0.5 wt %, Six times, 2nd line (+)",0 person
same,"Number of subjects with ±, +, or ++ reactivity","healthy adult subjects; 0.5 wt %, Six times, 3rd line (++)",0 person
same,"Number of subjects with ±, +, or ++ reactivity","healthy adult subjects; 0.5 wt %, Three times, 1st line (±)",0 person
same,"Number of subjects with ±, +, or ++ reactivity","healthy adult subjects; 0.5 wt %, Three times, 2nd line (+)",0 person
same,"Number of subjects with ±, +, or ++ reactivity","healthy adult subjects; 0.5 wt %, Three times, 3rd line (++)",0 person
same,Average reactivity,healthy adult subjects; 0.5 wt %,0
same,"Number of subjects with ±, +, or ++ reactivity","healthy adult subjects; 0.5 wt %, twice, 1st line (±)",0 person
same,"Number of subjects with ±, +, or ++ reactivity","healthy adult subjects; 0.5 wt %, twice, 2nd line (+)",0 person
same,"Number of subjects with ±, +, or ++ reactivity","healthy adult subjects; 0.5 wt %, twice, 3rd line (++)",0 person
same,"Number of subjects with ±, +, or ++ reactivity","healthy adult subjects; 1 wt %, Eight times, 1st line (±)",0 person
same,"Number of subjects with ±, +, or ++ reactivity","healthy adult subjects; 1 wt %, Eight times, 2nd line (+)",0 person
same,"Number of subjects with ±, +, or ++ reactivity","healthy adult subjects; 1 wt %, Eight times, 3rd line (++)",0 person
same,"Number of subjects with ±, +, or ++ reactivity","healthy adult subjects; 1 wt %, Five times, 1st line (±)",0 person
same,"Number of subjects with ±, +, or ++ reactivity","healthy adult subjects; 1 wt %, Five times, 2nd line (+)",0 person
same,"Number of subjects with ±, +, or ++ reactivity","healthy adult subjects; 1 wt %, Five times, 3rd line (++)",0 person
same,"Number of subjects with ±, +, or ++ reactivity","healthy adult subjects; 1 wt %, Four times, 1st line (±)",0 person
same,"Number of subjects with ±, +, or ++ reactivity","healthy adult subjects; 1 wt %, Four times, 2nd line (+)",0 person
same,"Number of subjects with ±, +, or ++ reactivity","healthy adult subjects; 1 wt %, Four times, 3rd line (++)",0 person
same,"Number of subjects with ±, +, or ++ reactivity","healthy adult subjects; 1 wt %, Nine times, 1st line (±)",0 person
same,"Number of subjects with ±, +, or ++ reactivity","healthy adult subjects; 1 wt %, Nine times, 2nd line (+)",0 person
same,"Number of subjects with ±, +, or ++ reactivity","healthy adult subjects; 1 wt %, Nine times, 3rd line (++)",0 person
same,"Number of subjects with ±, +, or ++ reactivity","healthy adult subjects; 1 wt %, Once, 1st line (±)",0 person
same,"Number of subjects with ±, +, or ++ reactivity","healthy adult subjects; 1 wt %, Once, 2nd line (+)",0 person
same,"Number of subjects with ±, +, or ++ reactivity","healthy adult subjects; 1 wt %, Once, 3rd line (++)",0 person
same,"Number of subjects with ±, +, or ++ reactivity","healthy adult subjects; 1 wt %, Seven times, 1st line (±)",0 person
same,"Number of subjects with ±, +, or ++ reactivity","healthy adult subjects; 1 wt %, Seven times, 2nd line (+)",0 person
same,"Number of subjects with ±, +, or ++ reactivity","healthy adult subjects; 1 wt %, Seven times, 3rd line (++)",0 person
same,"Number of subjects with ±, +, or ++ reactivity","healthy adult subjects; 1 wt %, Six times, 1st line (±)",0 person
same,"Number of subjects with ±, +, or ++ reactivity","healthy adult subjects; 1 wt %, Six times, 2nd line (+)",0 person
same,"Number of subjects with ±, +, or ++ reactivity","healthy adult subjects; 1 wt %, Six times, 3rd line (++)",0 person
same,"Number of subjects with ±, +, or ++ reactivity","healthy adult subjects; 1 wt %, Three times, 1st line (±)",0 person
same,"Number of subjects with ±, +, or ++ reactivity","healthy adult subjects; 1 wt %, Three times, 2nd line (+)",0 person
same,"Number of subjects with ±, +, or ++ reactivity","healthy adult subjects; 1 wt %, Three times, 3rd line (++)",0 person
same,Average reactivity,healthy adult subjects; 1 wt %,0
same,"Number of subjects with ±, +, or ++ reactivity","healthy adult subjects; 1 wt %, twice, 1st line (±)",0 person
same,"Number of subjects with ±, +, or ++ reactivity","healthy adult subjects; 1 wt %, twice, 2nd line (+)",0 person
same,"Number of subjects with ±, +, or ++ reactivity","healthy adult subjects; 1 wt %, twice, 3rd line (++)",0 person
same,"Number of subjects with ±, +, or ++ reactivity","healthy adult subjects; 3 wt %, Eight times, 1st line (±)",0 person
same,"Number of subjects with ±, +, or ++ reactivity","healthy adult subjects; 3 wt %, Eight times, 2nd line (+)",0 person
same,"Number of subjects with ±, +, or ++ reactivity","healthy adult subjects; 3 wt %, Eight times, 3rd line (++)",0 person
same,"Number of subjects with ±, +, or ++ reactivity","healthy adult subjects; 3 wt %, Five times, 1st line (±)",0 person
same,"Number of subjects with ±, +, or ++ reactivity","healthy adult subjects; 3 wt %, Five times, 2nd line (+)",0 person
same,"Number of subjects with ±, +, or ++ reactivity","healthy adult subjects; 3 wt %, Five times, 3rd line (++)",0 person
same,"Number of subjects with ±, +, or ++ reactivity","healthy adult subjects; 3 wt %, Four times, 1st line (±)",0 person
same,"Number of subjects with ±, +, or ++ reactivity","healthy adult subjects; 3 wt %, Four times, 2nd line (+)",0 person
same,"Number of subjects with ±, +, or ++ reactivity","healthy adult subjects; 3 wt %, Four times, 3rd line (++)",0 person
same,"Number of subjects with ±, +, or ++ reactivity","healthy adult subjects; 3 wt %, Nine times, 1st line (±)",0 person
same,"Number of subjects with ±, +, or ++ reactivity","healthy adult subjects; 3 wt %, Nine times, 2nd line (+)",0 person
same,"Number of subjects with ±, +, or ++ reactivity","healthy adult subjects; 3 wt %, Nine times, 3rd line (++)",0 person
same,"Number of subjects with ±, +, or ++ reactivity","healthy adult subjects; 3 wt %, Once, 1st line (±)",0 person
same,"Number of subjects with ±, +, or ++ reactivity","healthy adult subjects; 3 wt %, Once, 2nd line (+)",0 person
same,"Number of subjects with ±, +, or ++ reactivity","healthy adult subjects; 3 wt %, Once, 3rd line (++)",0 person
same,"Number of subjects with ±, +, or ++ reactivity","healthy adult subjects; 3 wt %, Seven times, 1st line (±)",0 person
same,"Number of subjects with ±, +, or ++ reactivity","healthy adult subjects; 3 wt %, Seven times, 2nd line (+)",0 person
same,"Number of subjects with ±, +, or ++ reactivity","healthy adult subjects; 3 wt %, Seven times, 3rd line (++)",0 person
same,"Number of subjects with ±, +, or ++ reactivity","healthy adult subjects; 3 wt %, Six times, 1st line (±)",0 person
same,"Number of subjects with ±, +, or ++ reactivity","healthy adult subjects; 3 wt %, Six times, 2nd line (+)",0 person
same,"Number of subjects with ±, +, or ++ reactivity","healthy adult subjects; 3 wt %, Six times, 3rd line (++)",0 person
same,"Number of subjects with ±, +, or ++ reactivity","healthy adult subjects; 3 wt %, Three times, 1st line (±)",0 person
same,"Number of subjects with ±, +, or ++ reactivity","healthy adult subjects; 3 wt %, Three times, 2nd line (+)",0 person
same,"Number of subjects with ±, +, or ++ reactivity","healthy adult subjects; 3 wt %, Three times, 3rd line (++)",0 person
same,Average reactivity,healthy adult subjects; 3 wt %,0
same,"Number of subjects with ±, +, or ++ reactivity","healthy adult subjects; 3 wt %, twice, 1st line (±)",0 person
same,"Number of subjects with ±, +, or ++ reactivity","healthy adult subjects; 3 wt %, twice, 2nd line (+)",0 person
same,"Number of subjects with ±, +, or ++ reactivity","healthy adult subjects; 3 wt %, twice, 3rd line (++)",0 person
same,"reactivity (skin response, ICDRG criteria)","healthy adult subjects; all content range (0.5 wt %, 1 wt %, 3 wt %), nine patches in three weeks",−
same,"IC50 (ppm), concentration required to reduce melanin production in melanocytes by half",Mel-Ab cell line,22 ppm
same,cytotoxicity (cell viability),SH-SY5Y cells,did not exhibit cytotoxicity
